Results reported in patent publication US7914831B2, “Synergistic anti-inflammatory pharmaceutical compositions and related methods using curcuminoids or methylxanthines” (priority 2004, dated 2011).
≈ marks a conversion by molar mass, not a printed value.

System: PGE2 production
Format: cell-based, murine
Settings: Mus musculus, RAW264.7; RAW 264.7, test material 60 min prior to 1.0 μg/mL LPS, PGE2 18 h post stimulation; read-out: IC50 (median inhibitory concentration for PGE2)

Compound: Cn1c(=O)c2c(ncn2C)n(C)c1=O [Caffeine, caffeine]
- IC50: 25 µg/mL (≈ 129 µM)
